Experimental data published in patent US20160263258A1, “Radiotracer introduced [18F]fluoromethyl group targeting neuroinflammation for PET imaging and Synthesis of Radiotracer and its biological evaluation Method for Radiotracer” (Bio Imaging Korea Co., Ltd., priority 2013, published 2016).

Assays:
TSPO = target: T1, TSPO (Rattus norvegicus, UniProt P16257); test: Selective/specific PET imaging: inhibition image by co-injection with the radiotracer; format: in vivo
T1 construct: from tissue; host or cells: brain of living LPS-injected Sprague-Dawley rats (PET imaging)
Protocol: (§1) To construct a neuroinflammation rat model, male Sprague-Dawley rats with a weight of 200-250 g were used. Each of the rats was anesthetized, and the cranium was exposed and then drilled with a bone drill to form a small hole. Thereafter, 50 μg of LPS (lipopolysaccharide) was injected into the rat body by a Hamilton syringe at a flow rate of […] (AP, 0.8 mm; L, −2.7 mm; and P, −5.0 mm from the bregma). LPS was maintained for 10 minutes to prevent LPS from flowing backward in the Hamilton syringe, and then the small hole of the cranium was filled with wax and the incised scalp was closed.

[1] = Metabolism of radiotracer in brain of neuroinflammation model rats (HPLC); format: in vivo, rat
Protocol: The [^18F]fluoromethyl group-introduced radiotracer (about 37 MBq, 5% ethanol/saline) was injected into the vein of the neuroinflammation model rats through the tail vein. After 30 and 60 minutes, the rats were sacrificed, and brain samples were collected therefrom, after which the metabolism of the fluorine-18-labeled radiotracer was measured by HPLC. As a result, the amount of the [^18F]fluoromethyl group-introduced radiotracer in the rat brain was 97.3% 30 minutes after injection and 96.8% 60 minutes after injection. Other radioactive metabolites, excluding 2-3% fluorine-18, were not observed in HPLC up to 60 minutes after injection. In contrast, according to previous studies, it is known that, in the case of [^11C]PBR28, radioactive metabolites exist in an amount of about 10-15%, thereby giving false images.

[2] = test system: LPS-induced brain neuroinflammation rat model; test: PET imaging in LPS-induced brain neuroinflammation rat model; format: in vivo; details: for time of uptake (faster uptake): PET time-activity, after injection; for accumulation in LPS-injected inflammatory region versus contralateral region: PET, tail vein injection, 4 days after LPS
Protocol: as §1
At 4 days after LPS injection into five rats (227.98±3.8 g), positron emission tomography (PET) images were acquired. The rats were subjected to PET imaging for 120 minutes after injection of [^11C]PBR28 or the [^18F]fluoromethyl group-introduced radiotracer into the tail vein of the neuroinflammation model. First, a [^11C]PBR28 image was acquired from the neuroinflammation model, and after six-half lives ([…]) when the remaining radioactivity disappeared, an image of the [^18F]fluoromethyl group-introduced radiotracer was acquired.

[3] = pH 7.4
Protocol: For the measurement of lipophilicity, each of the [^18F]fluoromethyl group-introduced radiotracer and [^11C]PBR28 (about 0.74 MBq) in 5% ethanol/saline was added to and mixed with n-octanol (5 mL) and sodium phosphate buffer (5.0 mL, 0.15 M, pH 7.4), and then lipophilicity was measured four times. The radioactivity of the sample (100 μL) in each sample was measured, and the lipophilicity was calculated as the ratio of counts per minute to sodium phosphate buffer and n-octanol.

[4] = background art; cited from earlier work
[5] = according to previous studies; cited from earlier work

## CCOC(=O)c1ncn2c1CN(C)C(=O)c1cc(F)ccc1-2 [Flumazenil]
TSPO; 5 mg/kg injected simultaneously with the [18F] radiotracer, CBR ligand
  influence on uptake of the fluorine-18-labeled radiotracer in the inflammatory region: did not influence the uptake

## CC(=O)N(Cc1ccccc1OC[18F])c1cnccc1Oc1ccccc1 [N-(2-[^18F]fluoromethoxybenzyl)-N-(4-phenoxypyridin-3-yl)acetamide]
[1]; 30 minutes after injection
  amount of radiotracer in the rat brain: 97.3%
[1]; 60 minutes after injection
  amount of radiotracer in the rat brain: 96.8%
[1]; up to 60 minutes after injection
  fluorine-18 (radioactive metabolite) in brain: 2-3%
[2]
  time of uptake (faster uptake): 4.5 min
  accumulation in LPS-injected inflammatory region versus contralateral region: more selectively accumulated in the LPS-injected inflammatory region than the contralateral region
[2]; for about 2 hours, p=0.009
  uptake, times higher: at least 3.0 times
[3]
  lipophilicity: 2.85±0.02

## CCC(C)N(C)C(=O)c1cc2ccccc2c(-c2ccccc2Cl)n1 (stereo not drawn) [PK11195]
TSPO; 10 mg/kg injected simultaneously with the [18F] radiotracer
  inhibition of radiotracer uptake in the inflammatory region: about 66%

## COc1ccc(OC)c(CN(C(C)=O)c2cc(F)ccc2Oc2ccccc2)c1 [[^11C]DAA1106]
[4]
  uptake relative to [11C]-(R)-PK11195: at least 4 times

## CC(=O)N(Cc1ccccc1O[11CH3])c1ccc(Oc2ccccc2)nc1 [[^11C]PBR28, N-acetyl-N-(2-[^11C]methoxybenzyl)-2-phenoxy-5-pyridinamine]
[2]
  time of uptake (faster uptake): 20 min
  accumulation in LPS-injected inflammatory region versus contralateral region: more selectively accumulated in the LPS-injected inflammatory region than the contralateral region
[2]; at 90 min
  inflammatory region/contralateral region ratio: 3.4 times
[5]
  radioactive metabolites, amount: 10-15%
[3]
  lipophilicity: 3.01±0.01
